Reference: ChEMBL document CHEMBL1201862, “PubChem BioAssay data set” (2004)
The source made the active and inactive calls.

Tests used:
[1] = molecular target: Glycogen synthase kinase-3 beta (Homo sapiens, UniProt P49841); assay: Inhibition of Human GSK-3 beta Activity Measured in Biochemical System Using Microfluidics - 2063-05_Inhibitor_Dose_DryPowder_Activity. [Related pubchem assays (depositor defined):AID2709]
[2] = molecular target: Glycogen synthase kinase-3 alpha (Homo sapiens, UniProt P49840); assay: Inhibition of Human GSK-3 alpha Activity Measured in Biochemical System Using Microfluidics - 2063-06_Inhibitor_Dose_DryPowder_Activity. [Related pubchem assays (depositor defined):AID2709]
[3] = molecular target: NS3 (Hepatitis C virus, UniProt A3EZJ3); assay: PubChem AID 2173; parameters: species or system Hepacivirus hominis
[4] = molecular target: T1, Low molecular weight phosphotyrosine protein phosphatase (Homo sapiens, UniProt P24666); assay type: functional; conditions: read-out: IC50_Mean
T1 sequence (P24666 whole entry): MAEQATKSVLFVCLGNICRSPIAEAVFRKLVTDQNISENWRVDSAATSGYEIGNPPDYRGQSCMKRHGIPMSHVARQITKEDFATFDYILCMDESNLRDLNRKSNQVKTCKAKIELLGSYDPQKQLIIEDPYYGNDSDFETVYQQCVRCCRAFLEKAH

[5] = molecular target: T2, DNA topoisomerase (Yersinia pestis, UniProt A0A2S9PM60); assay: Y. pestis Topo-I inhibitors, cleavage product readout, dose response, biochemical, cherry-pick (AID 588525)
T2 sequence (A0A2S9PM60 whole entry): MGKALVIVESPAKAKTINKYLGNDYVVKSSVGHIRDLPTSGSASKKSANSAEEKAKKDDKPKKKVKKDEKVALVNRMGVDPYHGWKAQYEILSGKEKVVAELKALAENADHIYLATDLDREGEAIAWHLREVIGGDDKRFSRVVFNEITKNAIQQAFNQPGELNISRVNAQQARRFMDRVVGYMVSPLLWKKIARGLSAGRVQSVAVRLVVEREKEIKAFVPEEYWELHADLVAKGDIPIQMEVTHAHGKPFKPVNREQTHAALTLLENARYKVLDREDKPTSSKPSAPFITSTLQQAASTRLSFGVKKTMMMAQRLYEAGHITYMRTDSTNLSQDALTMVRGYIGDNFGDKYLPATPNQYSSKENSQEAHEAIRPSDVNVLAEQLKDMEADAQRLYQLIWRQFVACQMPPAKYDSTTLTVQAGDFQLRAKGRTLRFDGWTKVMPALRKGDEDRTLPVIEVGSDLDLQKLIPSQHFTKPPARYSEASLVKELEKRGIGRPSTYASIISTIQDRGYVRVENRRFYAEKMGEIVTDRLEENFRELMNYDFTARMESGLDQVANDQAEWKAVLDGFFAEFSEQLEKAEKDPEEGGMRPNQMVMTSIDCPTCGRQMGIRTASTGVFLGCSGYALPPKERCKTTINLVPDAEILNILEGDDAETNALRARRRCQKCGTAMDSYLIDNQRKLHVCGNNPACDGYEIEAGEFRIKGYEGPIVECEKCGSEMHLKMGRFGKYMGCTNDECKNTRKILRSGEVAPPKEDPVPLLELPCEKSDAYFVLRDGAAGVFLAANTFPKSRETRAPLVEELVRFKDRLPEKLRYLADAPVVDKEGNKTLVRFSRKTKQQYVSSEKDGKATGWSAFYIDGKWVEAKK

[6] = tested on: Vero; assay: Vero cell cytotoxicity, cytotoxicity control for flavivirus capping enzyme inhibitors (AID 588742); assay type: functional; conditions: Chlorocebus sabaeus
[7] = molecular target: Genome polyprotein (dengue virus type 2, UniProt P29990); assay: Dengue-2 NS5 methyltransferase inhibitors, primary screen, biochemical, confirmation dose response (AID 588689); assay type: functional
[8] = molecular target: T1, Low molecular weight phosphotyrosine protein phosphatase; assay type: functional; conditions: read-out: IC50_Mean; remark: listed apart in the source
[9] = Late-stage probe development counterscreen for inhibitors of the Hepatitis C Virus non-structural protein 3 helicase (NS3): luminescence-based cell-based dose response assay to determine whether compounds that inhibit replication of HCV RNA replicon are cytotoxic. [Related pubchem assays (depositor defined):AID1800, AID1830, AID1845, AID1943, AID1945, AID2172, AID2173, AID2474, AID2476]; assay type: functional
[10] = tested on: Candida albicans; assay: C. albicans growth inhibition with fluconazole, dose response, antifungal resistance reversal project, CaCi-2 strain, Alamar Blue, dry powder, set 2 (AID 488930); assay type: functional, organism-based
[11] = tested on: Candida albicans; assay: growth inhibition of azole-resistant C. albicans, dose response, CaCi-8 strain, Alamar Blue, dry powder, set 2 (AID 488909); assay type: functional, organism-based
[12] = tested on: Candida albicans; assay: growth inhibition of resistant C. albicans, dose response, CaCi-8 strain, fluconazole, dry powder, set 4 (AID 488950); assay type: functional, organism-based
[13] = tested on: Candida albicans; assay: fluconazole resistance reversal in C. albicans, dose response, CaCi-2 strain, Alamar Blue, dry powder, set 4 (AID 488943); assay type: functional, organism-based
[14] = molecular target: T3, Calpain-2 catalytic subunit (Sus scrofa, UniProt P43367); assay: pig calpain II inhibitor potency, dose response, biochemical, fluorogenic peptide substrate (AID 1420); assay type: functional
T3 sequence (P43367 whole entry): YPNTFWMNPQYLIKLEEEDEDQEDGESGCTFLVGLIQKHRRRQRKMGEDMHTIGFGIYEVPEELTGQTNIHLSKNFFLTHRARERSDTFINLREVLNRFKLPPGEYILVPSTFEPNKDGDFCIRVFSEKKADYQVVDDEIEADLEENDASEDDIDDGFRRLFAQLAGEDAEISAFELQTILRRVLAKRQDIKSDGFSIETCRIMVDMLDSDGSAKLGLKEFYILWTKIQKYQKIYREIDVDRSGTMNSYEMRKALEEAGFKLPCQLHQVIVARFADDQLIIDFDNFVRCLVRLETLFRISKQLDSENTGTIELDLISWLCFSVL

[15] = tested on: Escherichia coli; assay: microbe, parasite or virus in culture
[16] = tested on: Escherichia coli; assay: microbe, parasite or virus in culture; remark: listed apart in the source
[17] = tested on: A-375; assay: MITF: Counter assay: A375 proliferation Measured in Cell-Based System Using Plate Reader - 2084-03_Inhibitor_Dose_DryPowder_Activity. [Related pubchem assays (depositor defined):AID488944]; assay type: functional; conditions: Homo sapiens
[18] = Shn3 3'UTR reporter inhibitors, dose response, cell-based, Clone20 osteoblasts, firefly luciferase, cherry-picked (AID 624132); assay type: functional;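 further: firefly luciferase luminescence from reporter carrying the Shn3 3'UTR in osteoblasts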
[19] = tested on: A-375; assay: A375 melanoma cell viability reduction, dose response, counter-screen for MITF modulator project, cherry-pick samples, set 2 (AID 540335); assay type: functional, cell-based; conditions: Homo sapiens
[20] = cytotoxicity in HEK-293T NF-kB-Luc cells, dose response, cytotoxicity control for B/T-cell NF-kB inhibitor project, cell-based, uHTS hits (AID 489019); assay type: functional;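 further: IC50 reflects cytotoxicity as loss of cell viability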
[21] = molecular target: Photoreceptor-specific nuclear receptor (Homo sapiens, UniProt Q9Y5X4); assay type: functional, cell-based;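 further: CHO-S cells with Gal4-NCOR and VP16-NR2E3 two-hybrid luciferase reporter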
[22] = molecular target: T4, Microphthalmia-associated transcription factor (Homo sapiens, UniProt O75030); assay: TRPM1 promoter luciferase signal decrease, dose response, MITF inhibitor project, cell-based, SK-MEL-5, cherry-picked, set 3 (AID 493073); assay type: functional
T4 sequence (O75030 whole entry): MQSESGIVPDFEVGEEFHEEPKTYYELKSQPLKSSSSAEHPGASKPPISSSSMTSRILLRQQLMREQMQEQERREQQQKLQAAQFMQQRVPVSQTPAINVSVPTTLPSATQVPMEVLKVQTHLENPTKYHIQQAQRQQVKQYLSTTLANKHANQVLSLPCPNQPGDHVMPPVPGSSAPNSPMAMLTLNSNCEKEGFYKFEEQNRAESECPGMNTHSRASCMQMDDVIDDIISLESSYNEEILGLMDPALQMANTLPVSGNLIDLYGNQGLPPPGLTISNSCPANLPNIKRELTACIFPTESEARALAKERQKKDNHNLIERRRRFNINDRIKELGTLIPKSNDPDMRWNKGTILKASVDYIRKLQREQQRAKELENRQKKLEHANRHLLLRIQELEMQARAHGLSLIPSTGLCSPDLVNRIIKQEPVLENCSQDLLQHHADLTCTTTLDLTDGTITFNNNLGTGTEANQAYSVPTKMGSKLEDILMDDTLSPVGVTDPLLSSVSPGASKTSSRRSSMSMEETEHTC

[23] = control 3'UTR Renilla luciferase suppression, dose response, counter-screen for Shn3 inhibitor project, cell-based, Clone20-Shn3RL, cherry-picked (AID 624133); assay type: functional
[24] = tested on: Jurkat; assay: antigen receptor-induced NF-kB inhibitors, dose response, Jurkat, luciferase reporter, luminescence, B- and T-cell (AID 489004); assay type: functional, cell-based; conditions: Homo sapiens;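 further: NF-kB luciferase reporter Jurkat cells stimulated with PMA plus ionomycin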

Genome polyprotein, sequence (P29990 2492-3391 limits assumed): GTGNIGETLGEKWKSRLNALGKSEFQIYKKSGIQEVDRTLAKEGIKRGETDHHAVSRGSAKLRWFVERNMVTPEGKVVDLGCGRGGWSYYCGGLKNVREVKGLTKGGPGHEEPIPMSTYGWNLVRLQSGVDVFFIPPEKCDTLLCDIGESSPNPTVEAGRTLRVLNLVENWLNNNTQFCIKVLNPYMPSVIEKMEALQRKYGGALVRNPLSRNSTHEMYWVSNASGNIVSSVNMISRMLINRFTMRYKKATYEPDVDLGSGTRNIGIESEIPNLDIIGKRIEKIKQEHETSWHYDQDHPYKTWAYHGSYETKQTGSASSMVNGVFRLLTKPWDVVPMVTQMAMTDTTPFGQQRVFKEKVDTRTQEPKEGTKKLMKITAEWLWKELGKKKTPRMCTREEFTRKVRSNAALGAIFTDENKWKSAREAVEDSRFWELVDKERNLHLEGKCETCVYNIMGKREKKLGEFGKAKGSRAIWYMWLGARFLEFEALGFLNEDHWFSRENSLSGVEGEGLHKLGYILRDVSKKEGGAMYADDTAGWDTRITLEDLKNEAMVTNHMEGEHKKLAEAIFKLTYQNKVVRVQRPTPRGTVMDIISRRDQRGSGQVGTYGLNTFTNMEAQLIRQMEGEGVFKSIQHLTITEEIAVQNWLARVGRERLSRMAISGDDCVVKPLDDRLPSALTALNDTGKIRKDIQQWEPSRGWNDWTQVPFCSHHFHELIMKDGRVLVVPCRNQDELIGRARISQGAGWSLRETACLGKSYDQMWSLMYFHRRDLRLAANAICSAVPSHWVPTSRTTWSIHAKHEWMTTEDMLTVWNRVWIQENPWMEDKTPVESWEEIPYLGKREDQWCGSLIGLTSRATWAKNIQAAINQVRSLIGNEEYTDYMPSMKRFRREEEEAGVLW
Photoreceptor-specific nuclear receptor, sequence (Q9Y5X4 whole entry, the tested form may be a part): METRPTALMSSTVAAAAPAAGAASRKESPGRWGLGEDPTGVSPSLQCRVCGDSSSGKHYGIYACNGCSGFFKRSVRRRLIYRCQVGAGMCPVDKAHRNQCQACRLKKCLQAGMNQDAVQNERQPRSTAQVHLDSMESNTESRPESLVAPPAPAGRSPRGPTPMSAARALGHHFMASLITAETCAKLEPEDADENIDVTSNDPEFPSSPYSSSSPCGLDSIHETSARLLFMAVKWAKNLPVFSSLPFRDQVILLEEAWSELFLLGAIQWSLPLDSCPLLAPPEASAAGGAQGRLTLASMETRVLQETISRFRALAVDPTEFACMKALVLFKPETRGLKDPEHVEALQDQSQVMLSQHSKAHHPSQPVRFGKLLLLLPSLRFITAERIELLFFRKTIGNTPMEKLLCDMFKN
Glycogen synthase kinase-3 alpha, sequence (P49840 whole entry): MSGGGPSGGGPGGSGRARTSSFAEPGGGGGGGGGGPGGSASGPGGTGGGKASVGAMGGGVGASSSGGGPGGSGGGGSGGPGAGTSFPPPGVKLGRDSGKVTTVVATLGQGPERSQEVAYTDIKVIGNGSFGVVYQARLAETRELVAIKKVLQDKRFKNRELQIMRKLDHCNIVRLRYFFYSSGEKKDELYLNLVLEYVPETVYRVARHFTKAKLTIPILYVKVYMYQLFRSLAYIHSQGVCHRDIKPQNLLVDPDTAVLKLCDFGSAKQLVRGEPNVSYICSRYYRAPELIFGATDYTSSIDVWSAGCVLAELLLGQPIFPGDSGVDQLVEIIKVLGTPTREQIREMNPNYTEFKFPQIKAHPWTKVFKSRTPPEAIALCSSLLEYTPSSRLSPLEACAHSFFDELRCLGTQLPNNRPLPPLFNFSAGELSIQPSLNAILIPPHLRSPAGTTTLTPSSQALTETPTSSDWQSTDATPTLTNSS
NS3, sequence (A3EZJ3 whole entry): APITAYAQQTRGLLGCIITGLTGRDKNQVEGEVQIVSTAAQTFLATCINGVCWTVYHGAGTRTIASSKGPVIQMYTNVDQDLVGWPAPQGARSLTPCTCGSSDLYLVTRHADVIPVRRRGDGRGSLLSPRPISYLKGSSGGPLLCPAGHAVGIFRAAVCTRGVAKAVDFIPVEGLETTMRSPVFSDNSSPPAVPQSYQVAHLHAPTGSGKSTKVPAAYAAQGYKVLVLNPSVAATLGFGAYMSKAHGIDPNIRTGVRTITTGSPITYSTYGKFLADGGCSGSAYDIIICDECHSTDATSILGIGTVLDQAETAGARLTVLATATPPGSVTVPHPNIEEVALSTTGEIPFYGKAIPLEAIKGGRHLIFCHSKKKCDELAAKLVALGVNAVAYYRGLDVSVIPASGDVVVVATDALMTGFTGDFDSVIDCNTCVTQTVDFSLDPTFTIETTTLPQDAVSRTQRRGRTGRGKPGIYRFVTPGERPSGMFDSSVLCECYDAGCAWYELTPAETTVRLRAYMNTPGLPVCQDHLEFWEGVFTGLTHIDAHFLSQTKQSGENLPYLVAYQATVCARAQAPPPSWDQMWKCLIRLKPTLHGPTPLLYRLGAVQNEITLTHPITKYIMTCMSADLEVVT
Glycogen synthase kinase-3 beta, sequence (P49841 whole entry): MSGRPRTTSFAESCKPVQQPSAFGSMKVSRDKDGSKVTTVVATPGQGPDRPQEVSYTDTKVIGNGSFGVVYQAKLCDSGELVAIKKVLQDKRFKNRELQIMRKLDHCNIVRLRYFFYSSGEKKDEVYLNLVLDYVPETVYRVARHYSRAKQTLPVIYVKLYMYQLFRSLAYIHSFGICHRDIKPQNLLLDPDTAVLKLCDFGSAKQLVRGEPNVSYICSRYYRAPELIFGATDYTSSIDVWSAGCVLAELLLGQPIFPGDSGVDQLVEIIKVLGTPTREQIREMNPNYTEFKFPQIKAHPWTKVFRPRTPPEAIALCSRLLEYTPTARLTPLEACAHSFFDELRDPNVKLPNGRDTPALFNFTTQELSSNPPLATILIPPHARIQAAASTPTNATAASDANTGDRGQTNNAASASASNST

COC(=O)c1ccc(CSc2ccc3nnc(-c4ccc(OC)cc4)n3n2)o1
AC50 [1]: 1.94 µM (active) | AC50 [2]: 6.84 µM (active)

CCCCCOc1ccc(C2C(C(=O)c3ccc(C)o3)=C(O)C(=O)N2c2cc(C)on2)cc1 (centres undefined)
IC50 [3]: 2.44 µM (active) | IC50 [4]: > 80 µM (inactive) | AC50 [5]: 6.14 µM (active) | CC50 [6]: > 40 µM (active) | IC50 [7]: 31.6 µM (active) | IC50 [8]: 2.21 µM (active) | CC50 [9]: > 100 µM (inactive)

O=C(c1ccc(Cl)nc1)N1CCN(c2ccnc3cc(Cl)ccc23)CC1
AC50 [10]: 2.99 µM (active) | AC50 [11]: < 0.195 µM (active) | AC50 [12]: 7.3 µM (active) | AC50 [13]: 3.16 µM (active)

O=C(CCC(=O)OCc1cccc(C(=O)Oc2ccccc2)c1)Nc1cccc2ccccc12
IC50 [14]: < 0.4 µM (not active) | AC50 [15]: 212 µM (active) | AC50 [16]: 23.5 µM (active)

C=CCn1c(C)cc(C(=O)CN2C(=O)c3ccccc3S2(=O)=O)c1C
AC50 [17]: > 35 µM (active) | AC50 [18]: 0.974 µM (active) | AC50 [19]: > 35 µM (active) | IC50 [20]: > 80 µM (inactive) | IC50 [21]: 2.46 µM (active) | AC50 [22]: 0.666 µM (active) | AC50 [23]: 23.2 µM (active) | IC50 [24]: 1.17 µM (active)
